Consider one compound from US11484601B2, “Targeting M2-like tumor-associated macrophages by using melittin-based proapoptotic peptide” (TWI[…]., priority 2018, dated 2022).

A short description of data set [1]: MTS cell viability assay, M2-type macrophage. Format: cell-based, mouse. Particulars: mouse, M2 macrophage, 0.6 to 0.5 μM, reaction for 24 hours. The protocol: (§1) More specifically, dKLA (SEQ ID NO: 2), MEL (SEQ ID NO: 1), MEL-dKLA (SEQ ID NO: 3; […]-d[KLAKLAKKLAKLAK]) peptide and 5-carboxyl tetramethylrhodamine (TMR)-conjugated dKLA, MEL and MEL-KLA peptides were purchased from GenScript (Piscataway, N.J., USA). TMR was conjugated with the amino group located at the N-terminal of the peptide. Regarding all of the peptides, 95% or greater purified peptides were used. Murine Lewis lung carcinoma (LLC) cells and macrophage RAW264.7 of mice were cultured in Dulbecco's modified Eagle's medium (DMEM; Welgene, Korea) to which 10% heat-inactivated fetal bovine serum (Welgene), 100 U/mL penicillin and 100 μg/mL streptomycin (Invitrogen, CA, USA) were added. Macrophage (RAW264.7) differentiated into M2-type was treated with IL-4 and IL-13 in the medium for 24 hours. After the treatment, the cells were cultured in a state in which serum was insufficient for 48 hours. M1-type macrophage was treated with 1 ng/mL of LPS for 24 hours to induce differentiation.
(§2) The cell viability test was measured via the MTS assay. RAW264.7 macrophage was differentiated into M1-type or M2-type macrophage which was inoculated onto a 96-well plate at 3×10^4 cells/well. The next day, the macrophage was treated with each of PBS, dKLA, MEL and MEL-dKLA. After 24 hours, the culture solution was replaced and the cell was treated with 20 μL MTS reaction solution (Promega, WI, USA), followed by reaction at 37° C. Then, […] was measured at 490 nm to measure cell viability.
(§3) The MEL-DM1 anticancer drug conjugation method and cell test method are as described above.
Background: Tetrazolium dyes change colour on reduction, which living cells bring about.

Data set [2] has as its system M2 macrophage (RAW264.7 differentiated into M2-type with IL-4 and IL-13). As to the kind of experiment: MTS cell viability assay, M2-type macrophage. It counts as cell-based, mouse. Particulars: 24 hours, read-out: half-maximal inhibitory concentration (IC50) against M2 macrophage. The procedure:
as §1, §2, §3

A short description of data set [3]: MTS cell viability assay, M1-type macrophage. Format: cell-based. The settings on record: mouse, RAW264.7 macrophages differentiated into M1-type with LPS, 0.6 to 0.8 μM. The procedure:
as §1
The cell viability test was measured via the MTS assay. RAW264.7 macrophage was differentiated into M1-type or M2-type macrophage which was inoculated onto a 96-well plate at 3×10^4 cells/well. The next day, the macrophage was treated with each of PBS, dKLA, MEL and MEL-dKLA. […] Then, fluorescence was measured at 490 nm to measure cell viability.

The test system of data set [4] is M1 macrophage. As to the kind of experiment: Annexin V-FITC / MitoTracker flow cytometry, M1 macrophage. Format: cell-based, mouse. The settings on record: 0.8 μM peptide. The procedure: More specifically, the cells were stained with Annexin V-fluorescein isothiocyanate (FITC; BD Biosciences, CA, USA) and MitoTracker RedBOX (Invitrogen). The cells were inoculated at 5×10^5 cells/well, onto a 24-well plate. The next day, 0.8 μM peptide was applied thereto. In 1, 3 and 6 hours after the application, the cells were reacted with 250 nM MitoTracker for 1 hour in a serum-free culture solution. Thereafter, the cells were collected and reacted with Annexin V again. The reacted cells were measured with BD FACSCalibur, and were analyzed via FlowJo software (Treestar, Inc., CA, USA). MitoTracker could pass through protoplasmic membrane depending on the membrane charge and then accumulated within the mitochondria. In other words, staining may be identified in the mitochondria membrane of living cells, but staining may be difficult in cells where apoptosis occurs due to membrane disturbance.

In data set [5] the test system is M1-type tumor-associated macrophage (CD45+F4/80+CD86+). As to the kind of experiment: Flow cytometry of tumor tissue, M1-type TAM. Format: in vivo, mouse. Particulars: MEL vs PBS and dKLA groups; MEL-dKLA vs MEL group. The protocol:
More specifically, the tumor cells were thinly crushed and separated from each other in DMEM to which DNasel (1 U/mL) and collagenase D (1 mg/mL) were added. The tissue was gently agitated for 1 hour at 37° C., and separated using a […] nylon mesh filter. Red blood cells were dissolved in Phrmlyse buffer (BE bioscience). Individual cells passed through a 40-μm nylon mesh filter and then were stained with following antibodies: CD4+ T cell (CD45+CD4+CD8−), CD8+ T cell (CD45+CD4−CD8+), Foxp3+ regulatory T cell (CD4+CD25+Foxp3+), dendritic cell (CD45+CD11b+CD11c+), and M1 (CD45+F4/80+CD86+) or M2 macrophage (CD45+F4/80+CD206+): anti-CD45-FITC, anti-CD4-phycoerythrin (PE), anti-CD8-allophycocyanin (APC), anti-CD4-FITC, anti-CD25-PE, anti-Foxp3-Alexa Fluor647, anti-CD11b-APC, anti-CD11c-APCcy7, anti-Grl-PEcy7, anti-CD86-PEcy7, and anti-CD206-APC antibodies. Annexin-V was previously treated to measure the cell percentage of macrophages.
For orientation: A flow cytometer gives signals particle by particle.

For data set [6], the system named is CD31+ endothelial cells of LLC tumors. As to the kind of experiment: CD31 immunofluorescence staining of tumor endothelial cells. It counts as in vivo, mouse. The settings on record: LLC tumor sections. The text has this: CD31 (PECAM-1) is […] the vascular endothelium, and is well-known as a marker that may indicate angiogenesis. The angiogenesis in tumors is essential means to supply oxygen and nutrients to areas at a low oxygen level in the tumor and thus is closely related to cancer growth and metastasis. M2-type macrophages are major precursors of angiogenic factors, and contain cyclooxygenase-2, matrix metalloproteinase-9 and VEGF. The density of macrophage is related to angiogenesis. Therefore, immunostaining was performed and a confocal device was used to identify whether a decrease in the M2-type tumor-associated macrophage (TAM) in a tumor causes a decrease in angiogenesis.
More specifically, the tissue was […] with paraformaldehyde for 24 hours. Then, the tissue was cut into sections having 4 μm thickness using a rotary microtome, which in turn was restored via autoclaving under pressure for 1 minute with tri-sodium citrate buffer. […] After the staining, the sections were mounted on and analyzed using a laser scanning confocal microscope (Carl Zeiss). All images are taken using LSMS PASCAL, and fluorescence values were analyzed using ImageJ software.

For the compound `CC[C@H](C)[C@H](NC(=O)CN)C(=O)NCC(=O)N[C@@H](C)C(=O)N[C@H](C(=O)N[C@@H](CC(C)C)C(=O)N[C@@H](CCCCN)C(=O)N[C@H](C(=O)N[C@@H](CC(C)C)C(=O)N[C@H](C(=O)N[C@H](C(=O)NCC(=O)N[C@@H](CC(C)C)C(=O)N1CCC[C@H]1C(=O)N[C@@H](C)C(=O)N[C@@H](CC(C)C)C(=O)N[C@H](C(=O)N[C@@H](CO)C(=O)N[C@@H](Cc1c[nH]c2ccccc12)C(=O)N[C@H](C(=O)N[C@@H](CCCCN)C(=O)N[C@@H](CCCNC(=N)N)C(=O)N[C@@H](CCCCN)C(=O)N[C@@H](CCCNC(=N)N)C(=O)N[C@@H](CCC(N)=O)C(=O)N[C@@H](CCC(N)=O)C(N)=O)[C@@H](C)CC)[C@@H](C)CC)[C@@H](C)O)[C@@H](C)O)C(C)C)C(C)C` [MEL], the results for the viability at 24 h in data set [1] and in data set [3] were 71 to 79% and 74%, respectively. Besides, the IC50 in data set [2] fell in the range of 600 to 800 nM. In data set [4] (1 to 3 hours), the “Annexin V / MitoTracker staining effect on M1 macrophage” value is reported as “the effect did not appear”. In addition, the “Annexin V / MitoTracker staining change in M1 macrophage” value in data set [4] (6 hours) is “no significant change”. Further, the “F480+ CD86+ M1-type tumor-associated macrophage in tumor” value in data set [5] was “slightly increased”. Moreover, the “CD31+ endothelial cells (blood vessel density)” value in data set [6] is recorded as “significant decrease”.
